Structures can show the parent of a compound that is named as a salt.
Test: Steroid concentration in the cytoplasmic membrane (erythrocyte membrane ghosts, HPLC-MS)
Format: physicochemical, rat
Description: All animal manipulations were conducted in accordance with the Animal Protection Code of the Czech Republic and corresponding directives of the European Community Council (2010/63/EC). Experiments were approved by the Animal Care and Use Committee of the Institute of Physiology of the Academy of Sciences of the Czech Republic. Blood was collected from one adult Wistar rat, heparinized, and spun down at 1,000 g for 10 min. Cells were washed once with PBS, briefly spun down and the pellet resuspended in a minimum amount of ECS. Cells were counted and 200 μl aliquots (~3*10^9 cells) were taken for the experiment. Cell membranes were prepared by 30 min erythrocyte lysis in distilled water followed by centrifugation at 25,000 g for 10 min and resuspension in 200 μl of ECS. Cell membranes were incubated for 2 min with PA-S solution in ECS at the final volume of 500 μl, followed by a spin down at 20,000 g for 2 min. Supernatants were taken for liquid chromatography-mass spectrometry analysis (HPLC-MS). Solution of PA-S without membranes served as a control. […]
PA-S concentration was assessed in ECS to which steroid was added from its 20 mM stock solution ([PA-S]ECS) and in the supernatant of a solution containing er ythroc yte membranes ([PA-S]EC S+M) (see Methods). The concentration of steroid in the membrane ([PA-S]M) was calculated from the difference of [PA-S] in the control solution ([PA-S] EC S) and that in the supernatant containin g m embranes ([PA-S]EC S+M) accordin g to [PA-S]M = ([PA-S]ECS - [PA-S]EC S+M) · Vsolu tion /Vmembrane (where V denotes volume). Data points were fitted to the linear equation of the following form y = 38.8 * x; The partition coeffici ent for P A-S was calculated […]
7.4) determined using the online program CHEMICALIZE (http://www.chemicalize.org/).
Data points represent the mean of two independent measurements. The values of the partition coefficient (log D) of PA-S in the erythrocyte cytoplasmic membrane was calculated assuming 136 μm2 as the mean surface area of a rat erythroc yte and 4 nm as the mean membrane thickness. […]

CC(=O)[C@H]1CC[C@H]2[C@@H]3CC[C@@H]4C[C@H](OS(=O)(=O)O)CC[C@]4(C)[C@H]3CC[C@]12C [PA-S, 20-oxo-5β-pregnan-3α-yl sulfate]
equilibrium surface density S (calculated for the PA-S IC50 value of 55.7 µM): 4.32 10−9 M m −2
flux Jout of steroid from the membrane into the aqueous phase (product of [PA-S]membrane and koff): at least 4.3 μM s^−1 m^−2
slope of linear fit of [PA-S]M versus aqueous concentration (y = slope * x): 38.8

Reference: article PMC4471902, “Block of NMDA receptor channels by endogenous neurosteroids: implications for the agonist induced conformational states of the channel vestibule” (Scientific Reports, 2015)
